Assay results as given in patent publication US20220348590A1, “CYCLOOXYGENASE-2 INHIBITORS AND USES THEREOF” (The Board Institute, Inc., priority 2019, published 2022).
Where two headings read alike, the source gives them in different places.

Target: T1, human recombinant COX2 (hCOX2) (UniProt P35354)
T1 sequence (P35354 1-604): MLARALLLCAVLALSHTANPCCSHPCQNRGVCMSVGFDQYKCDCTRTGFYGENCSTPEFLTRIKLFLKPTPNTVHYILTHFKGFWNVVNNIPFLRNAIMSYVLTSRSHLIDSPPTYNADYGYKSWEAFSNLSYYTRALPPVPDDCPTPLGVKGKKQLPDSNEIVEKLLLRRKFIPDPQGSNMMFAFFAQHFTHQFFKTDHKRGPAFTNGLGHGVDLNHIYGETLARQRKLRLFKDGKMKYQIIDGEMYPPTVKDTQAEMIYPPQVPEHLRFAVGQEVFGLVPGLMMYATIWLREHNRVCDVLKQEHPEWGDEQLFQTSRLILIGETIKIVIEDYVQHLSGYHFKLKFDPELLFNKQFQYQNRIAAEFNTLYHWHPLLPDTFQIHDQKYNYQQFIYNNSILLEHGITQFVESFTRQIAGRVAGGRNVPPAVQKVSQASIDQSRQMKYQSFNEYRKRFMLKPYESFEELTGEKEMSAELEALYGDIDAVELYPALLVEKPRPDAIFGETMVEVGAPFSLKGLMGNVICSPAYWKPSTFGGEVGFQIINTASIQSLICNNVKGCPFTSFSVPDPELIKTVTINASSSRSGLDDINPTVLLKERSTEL
Test: LCMS-based COX2 enzymatic inhibition assay (PGE2 quantification)
Assay type: biochemical
Design: COX2 2 minutes pge2/pge2d4 area ratio Avg; other: 2 minutes; readout pge2/pge2d4 area ratio; average; COX2 2 minutes pge2/pge2d4 area ratio Avg; LLE; average LLE; COX2 2 minutes pge2 area (counts) Avg; readout pge2 area (counts); other: 2 min; "ovine COX2 (oCOX2), human recombinant COX2 (hCOX2)"
Settings: for IC50: average
Protocol: We have adapted a previously reported cyclooxygenase enzymatic assay utilizing LCMS quantification of PGE2 as the product of COX-1 and COX2 catalyzed conversion of arachidonic acid to evaluate the binding properties of newly synthesized ligands [Cao, 2011]. These optimized and miniaturized (384-well plates) LCMS-based COX-1 and COX2 enzymatic assays enabled us to quickly evaluate newly synthesized ligands for COX2 binding affinity and selectivity vs COX-1. Using a shorter ligand-enzyme incubation time in the LCMS assay (2 minutes vs 10 minutes) also permitted us to prioritize ligands with faster binding kinetics. Considering the relatively slow on-rate kinetics of known coxibs, due to their 3-step binding mechanism [Marnett, 2009], we believe that optimizing this critical parameter will be key to the successful development of a COX2 PET tracer. Using these enzymatic assays, we have evaluated>200 newly synthesized ligands against COX2 and >20 ligands against COX-1. Another critical property necessary for a good PET radiotracer is to have low non-specific binding (NSB) to increase the free fraction and maximize the signal to noise ratio. This property can be evaluated using in-vitro protein binding assays, and we have now evaluated>50 newly synthesized ligands in mouse, rat and human plasma protein binding (PPB) assays as well as >15 ligands in a mouse brain protein binding (BPB) assay.
Ovine COX-1 (oCOX-1), ovine COX2 (oCOX2), human recombinant COX2 (hCOX2), arachidonic acid, PGE2, d4-PGD2, and […] (labeled with deuterium atoms at positions 3 and 4) were purchased from Cayman Chemicals (Ann Arbor, Mich.). The cofactors (−)epinephrine and hematin, and the COX inhibitors indomethacin, resveratrol and diclofenac were purchased from Sigma-Aldrich (St. Louis, Mo.). Celecoxib was purchased from 3B PharmaChem International (Wuhan, China). All organic solvents were HPLC grade or better and were purchased from Thermo Fisher (Hanover Park, Ill.). Formic acid was purchased from EMD Chemicals (San Diego, Calif.). Purified water was prepared by using a Millipore Milli-Q purification system (Millipore, Billerica, Mass.). All other chemicals and solvents were ACS reagent grade, unless stated otherwise.
In an Eppendorf tube, 146 μL of 100 mM Tris.HCl (pH 8.0) buffer, 2 μL of 100 μM hematin (co-factor) and 10 μL of 40 mM L-epinephrine (co-factor) were mixed at room temperature. Next, 20 μL of Tris.HCl (pH 8.0) buffer containing 0.2 μg COX2 or 0.1 μg COX-1 (approximately 1 unit of enzyme; 1 unit COX utilizes 1 nmol 02/mg/min at 37° C.) was added, and the solution was incubated at room temperature for 2 min. A 2 μL aliquot of the COX inhibitor in DMSO was added to the enzyme solution and preincubated at 37° C. for 10 min. Negative controls were identical except that 2 μL aliquots of DMSO without inhibitor were used instead.
Each COX reaction was initiated by adding 20 μL of arachidonic acid in Tris.HCl (pH 8.0) buffer to give a final concentration of 5 μM; and the reaction was terminated after 2 min by adding 20 μL of 2.0 M HCl. The surrogate standards d4-PGE2 and d4-PGD2 (10 μL aliquot of 50 ng/mL solution in methanol) were added to correct for errors or degradation during sample handling and for variation in injection volume or instrument response during LC-MS-MS. After 30 min, PGE2, PGD2 and their surrogate standards were extracted from each incubation mixture using 800 μL hexane/ethyl acetate (50:50, v/v). The organic phase was removed, evaporated to dryness, and reconstituted in 100 μL methanol/water (50:50, v/v) for analysis using LC-MS-MS.
The concentration of PGE2 in each sample was measured using LC-MS-MS, and the percent of COX inhibition by each test solution was determined by comparing the amount of PGE2 produced in the experiment with that produced in the negative control incubation. The formation of PGD2 was measured for quality control purposes, since the levels of PGD2 should be proportional to those of PGE2. […]

[1] = 2 minutes, readout pge2/pge2d4 area ratio, average LLE
[2] = 2 minutes, readout pge2/pge2d4 area ratio, read-out: COX2 2 minutes pge2/pge2d4 area ratio Avg. IC50
[3] = 2 minutes, readout pge2 area (counts), average LLE
[4] = 2 minutes, readout pge2 area (counts), read-out: COX2 2 minutes pge2 area (counts) Avg. IC50

Structure (SMILES) | COX2 2 minutes pge2/pge2d4 area ratio Avg. LLE [1] | IC50 [2] [nM] | COX2 2 minutes pge2 area (counts) Avg. LLE [3] | IC50 [4] [nM] | COX2 10 minutes pge2 area (counts) Avg. LLE (10 minutes, readout pge2 area (counts), average LLE) | IC50 (10 minutes, readout pge2 area (counts), read-out: COX2 10 minutes pge2 area (counts) Avg. IC50) [nM] | COX2 30 minutes pge2 area (counts) Avg. LLE (30 minutes, readout pge2 area (counts), average LLE) | IC50 (30 minutes, readout pge2 area (counts), read-out: COX2 30 minutes pge2 area (counts) Avg. IC50) [nM]
Cc1ccc(CNc2cccc(-c3ccc(S(C)(=O)=O)cc3)n2)o1 [Compound 117] | 4.029 | 110 | 4.185 | 61.5 | – | – | – | –
CS(=O)(=O)c1ccc(-c2cnc(C(F)(F)F)c(OCc3cccs3)n2)cc1 [Compound 118] | 3.641 | 114 | 3.56 | 153 | – | – | – | –
Cc1ncc(OCc2cccs2)nc1-c1ccc(S(C)(=O)=O)cc1 [Compound 119] | 4.695 | 116 | 4.215 | 233 | – | – | – | –
CS(=O)(=O)c1ccc(-n2ccc3ccc(OCc4cccs4)nc32)cc1 [Compound 122] | 2.212 | 127 | 2.325 | 95 | – | – | – | –
COc1cnc(-c2ccc(S(C)(=O)=O)cc2)nc1OCc1cccs1 [Compound 123] | 3.569 | 131 | 3.5904 | 121 | – | – | – | –
Cc1ccc(COc2cncc(-c3ccc(S(C)(=O)=O)cc3)n2)s1 [Compound 124] | – | 139 | – | 123 | – | – | – | –
CS(=O)(=O)c1ccc(-n2ccc3ccc(NCc4ccco4)nc32)cc1 [Compound 125] | 3.017 | 141 | 2.953 | 174 | – | – | – | –
COc1ncc(NCc2cccs2)nc1-c1ccc(S(C)(=O)=O)cn1 [Compound 128] | 5.784 | 144 | 5.809 | 139 | – | – | – | –
CS(=O)(=O)c1ccc(-c2cc(C(F)(F)F)nc(Oc3ccc(F)cc3)n2)cc1 [Compound 130] | 2.661 | 153 | 2.626 | 210 | 4.116 | 9.42 | 5.42 | 0.242
COCCOc1ncc(NCc2cccs2)nc1-c1ccc(S(C)(=O)=O)cc1 [Compound 133] | 4.558 | 167 | 4.582 | 126 | – | – | – | –
CS(=O)(=O)c1ccc(-c2cccc(NCc3cnoc3)n2)cc1 [Compound 136] | 5.1378 | 196 | 5.206 | 161 | – | – | – | –

More lines, in order of falling IC50 [2], values ahead:

COX2 2 minutes pge2/pge2d4 area ratio Avg. LLE [1] | IC50 [2] [nM] | COX2 2 minutes pge2 area (counts) Avg. LLE [3] | IC50 [4] [nM] | COX2 10 minutes pge2 area (counts) Avg. LLE (10 minutes, readout pge2 area (counts), average LLE) | IC50 (10 minutes, readout pge2 area (counts), read-out: COX2 10 minutes pge2 area (counts) Avg. IC50) [nM] | COX2 30 minutes pge2 area (counts) Avg. LLE (30 minutes, readout pge2 area (counts), average LLE) | IC50 (30 minutes, readout pge2 area (counts), read-out: COX2 30 minutes pge2 area (counts) Avg. IC50) [nM] | Structure (SMILES)
4.977 | 197 | 4.936 | 215 | – | – | – | – | CS(=O)(=O)c1ccc(-c2cncc(NCc3cccs3)n2)c(O)c1 [Compound 137]
4.3725 | 183 | 4.235 | 239 | – | – | – | – | CS(=O)(=O)c1ccc(-c2cncc(OCc3ccsc3)n2)cc1 [Compound 134]
4.451 | 158 | 3.942 | 975 | – | – | – | – | CS(=O)(=O)c1ccc(-c2cncc(Oc3ccccc3)n2)cc1 [Compound 132]
5.065 | 157 | 5.129 | 131 | – | – | – | – | CS(=O)(=O)c1ccc(-c2cncc(SCc3ccccn3)n2)cc1 [Compound 131]
6.121 | 144 | 6.077 | 169 | – | – | – | – | CS(=O)(=O)c1ccc(-c2cncc(NCc3cccs3)n2)nc1 [Compound 127]
3.568 | 142 | 3.634 | 122 | – | – | – | – | CS(=O)(=O)c1ccc(-n2ccc3ncc(NCc4cccs4)nc32)cc1 [Compound 126]
– | 121 | – | 124 | – | – | – | – | CS(=O)(=O)c1ccc(-c2ccc3c(n2)N(Cc2cccs2)CC3)cc1 [Compound 121]
